Measurements from paper PMC6356585 (Viruses, 2018).

How the values were obtained:
ZIKV [1] = test system: ZIKV; set-up: method as in ref 43 = [43]; conditions: by inhibiting viral entry; cited from earlier work
ZIKV [2] = test system: ZIKV; set-up: method as in ref 43 = [43]; conditions: by inhibiting viral entry; cited from earlier work; remark: listed apart in the source
ZIKV IbH = assay: Autophagy compound screen in Vero cells infected with ZIKV IbH; type: cell-based, Zika virus; conditions: African-lineage ZIKV IbH, 10 µM
ZIKV SPH [3] = assay: ZIKV SPH titer in compound-treated human neurons; type: cell-based, Zika virus; conditions: 10 µM, ZIKV SPH MOI 1.0, 4 days, TCID50
human rhinovirus = test system: human rhinovirus; set-up: method as in ref 39 = [39]; conditions: cited from earlier work
human rotavirus = test system: human rotavirus; set-up: method as in ref 39 = [39]; conditions: cited from earlier work
human papillomavirus = test system: human papillomavirus; set-up: method as in ref 39 = [39]; conditions: cited from earlier work
ZIKV SPH [4] = assay: Time-of-addition assay in Vero cells; type: cell-based, Zika virus; conditions: for ZIKV titer, time-of-addition / Decrease of ZIKV titers, time-of-addition: Vero
C6/36 cells = type: cell-based, Ae. albopictus; conditions: 10 µM compound, 96 h, CellTiter-Glo; ± SEM, three independent trials
ZIKV SPH [5] = assay: 7-Ketocholesterol and ZIKV pre-incubation (virucidal effect); type: cell-based, Zika virus; conditions: 200 µM 7-KC, 1 h, room temperature, then diluted to approx. 0.2 µM on Vero cells, MOI 0.1, 40 hpi
ZIKV SPH [6] = assay: qRT-PCR of ZIKV genomes in cells and supernatants; type: cell-based, Zika virus
ZIKV SPH [7] = assay: Autophagy compound library screen, ZIKV SPH titer (TCID50) in C6/36 cells; type: cell-based, Zika virus; conditions: Zika virus, C6/36; 10 µM compound, MOI 0.1, 96 h, TCID50; ± SEM, three independent trials; read-out: ZIKV SPH Relative Titer in C6/36 Cells
ZIKV SPH [8] = assay: 7-Ketocholesterol dose-response, ZIKV SPH titer in Vero cells; type: cell-based; conditions: Zika virus, MOI 1, 24 h, 0–27 µM, TCID50, R^2 = 0.9078
[9] = test system: autophagic vesicles in Vero cells; assay: Autophagy detection (CYTO-ID) in Vero cells; type: cell-based; conditions: 10 µM compound, 24 h, CYTO-ID green MFI vs DMSO control

C[C@H](CCCC(C)(C)O)[C@H]1CC[C@H]2[C@@H]3CC=C4C[C@@H](O)CC[C@]4(C)[C@H]3CC[C@]12C [25-hydroxycholesterol]
ZIKV titers in vitro (ZIKV [1]): reduced ZIKV titers
ZIKV titers in vivo (ZIKV [2]): reduced ZIKV titers

CC(C)CCC[C@@H](C)[C@H]1CC[C@H]2[C@@H]3C(=O)C=C4C[C@@H](O)CC[C@]4(C)[C@H]3CC[C@]12C [7-Ketocholesterol]
Reduction of ZIKV IbH (ZIKV IbH): more than 90 % of control
ZIKV IbH titer in Vero cells compared to control (ZIKV IbH): reduced ZIKV IbH titers
ZIKV IbH titer in Vero cells compared to control (ZIKV IbH; listed as 7-KC): dropped titers more than a log
ZIKV titer in human neurons (ZIKV SPH [3]): reduced ZIKV titer
Activity against human rhinovirus (human rhinovirus): minor activity
Activity against human rotavirus (human rotavirus): no activity
Activity against human papillomavirus (human papillomavirus): no activity
ZIKV titer, time-of-addition (ZIKV SPH [4]; 10 µM 7-KC added 12 h after infection, 24 hpi): ZIKV inhibition continued
ZIKV titer, time-of-addition (ZIKV SPH [4]; 10 µM 7-KC added 18 h after infection, 24 hpi): slight decrease in titer
Decrease of ZIKV titers, time-of-addition (ZIKV SPH [4]; 10 µM 7-KC added at 2 hpi, MOI 0.1, 24 hpi): 90%
Decrease of ZIKV titers, time-of-addition (ZIKV SPH [4]; 10 µM 7-KC added at 6 hpi, MOI 0.1, 24 hpi): 90%
Decrease of ZIKV titers, time-of-addition (ZIKV SPH [4]; 10 µM 7-KC added at the time of infection, MOI 0.1, 24 hpi): 90%
ZIKV titer, time-of-addition (ZIKV SPH [4]; 10 µM 7-KC, pre-treating cells 2 h before infection, MOI 0.1, 24 hpi): did not reduce viral titers
Decrease in infectious virions (ZIKV SPH [4]; Vero cells, 10 µM 7-KC, 24 hpi): greater than 90%
C6/36 Viability (C6/36 cells): 36 ± 5.1% of untreated control
ZIKV titer after preincubation of virus stock with compound (virucidal effect) (ZIKV SPH [5]): did not reduce viral titers
Budding/release efficiency (genomes in supernatant vs cell associated genomes) (ZIKV SPH [6]; Vero cells, 10 µM 7-KC, 24 hpi): approximately 30 % of untreated cells
Number of viral genome copies in the supernatant (ZIKV SPH [6]; Vero cells, 10 µM 7-KC, 24 hpi): reduced
Levels of ZIKV RNA in infected cells (ZIKV SPH [6]; Vero cells, 10 µM 7-KC, total cellular RNA at 24 hpi): not significantly altered
Specific infectivity: 1 in N genomes infectious (ZIKV SPH [6]; infectious titer vs genome copies in supernatant, Vero, 7-KC present, control 1 in 1200): ~9000 genomes
activity at 10 µM (ZIKV SPH [7]): 9.8 ± 3.3%
IC50 (ZIKV SPH [8]): 4.06 µM
Autophagy Activity Factor (AAF) [9]: 27.01
